The text below walks through data of patent publication US7601716B2, “Pyridopyrazines and derivatives thereof as ALK and c-Met inhibitors” (Cephalon, Inc., priority 2006, dated 2009).

The target in test [1] is T1, c-Met (cytoplasmic domain) (Homo sapiens, UniProt P08581).
T1 construct: Reactions were initiated with 30 ng/mL c-Met (cytoplasmic domain, Invitrogen Corporation #PV3143); purchased Invitrogen Corporation PV3143
The test is described as follows: c-Met Kinase Assay (ELISA/TRF, PLC-γ substrate). Type of test: biochemical. The note with it: 3 μM ATP (Km level); read-out: c-Met Kinase Inhibition (IC50). The protocol:
Example compounds were tested for their ability to inhibit the kinase activity of baculovirus-expressed ALK using a modification of the ELISA protocol reported for trkA in Angeles, T. S. et al., Anal. Biochem. 1996, 236, 49-55, which is incorporated herein by reference in its entirety. Phosphorylation of the substrate, phospholipase C-gamma (PLC-γ) generated as a fusion protein with glutathione S-transferase (GST) as reported in Rotin, D. et al., EMBO J. 1992, 11, 559-567, which is incorporated herein by reference in its entirety, was detected with a europium-labeled anti-phosphotyrosine antibody and measured by time-resolved fluorescence (TRF). Briefly, each 96-well plate was coated with 100 μL/well of 10 μg/mL substrate (phospholipase C-γ) in Tris-buffered saline (TBS). […] The reaction was initiated by adding enzyme (30 ng/ml ALK) and was allowed to proceed at 37° C. for 15 minutes. Detection of the phosphorylated product was performed by adding 100 μl/well of Eu-N1 labeled PT66 antibody (Perkin Elmer # AD0041). Incubation at 37° C. then proceeded for one (1) hour, followed by addition of 100 μL enhancement solution (Wallac #1244-105). The plate was gently agitated and after thirty minutes, the fluorescence of the resulting solution was measured using the EnVision 2100 (or 2102) multilabel plate reader (Perkin Elmer).
Data analysis was performed using ActivityBase (IDBS, Guilford, UK). IC50 values were calculated by plotting percent inhibition versus log10 of the concentration of compound and fitting to the nonlinear regression sigmoidal dose-response (variable slope) equation in XLFit (IDBS, Guilford, UK).
Reactions were initiated with 30 ng/mL c-Met (cytoplasmic domain, Invitrogen Corporation #PV3143).

Test [2] has as its target baculovirus-expressed ALK (Homo sapiens, UniProt Q9UM73). Nature of the test: ALK Kinase Assay (ELISA/TRF, PLC-γ substrate). Also: 1 µM ATP (Km level). The note with it: read-out: ALK Kinase Inhibition (IC50). The test is classed as biochemical. An outline of the steps: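 GST-PLC-γ coat 10 μg/mL/TBS; 30 ng/ml ALK, 37° C, 15 min; Eu-PT66 anti-pTyr 1 h 37° C, enhancement, TRF. IC50: % inhib vs log10[cpd], variable-slope sigmoid.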

Counter-ions that a name gives are not always drawn.

T1 sequence (P08581 956-1390 limits assumed): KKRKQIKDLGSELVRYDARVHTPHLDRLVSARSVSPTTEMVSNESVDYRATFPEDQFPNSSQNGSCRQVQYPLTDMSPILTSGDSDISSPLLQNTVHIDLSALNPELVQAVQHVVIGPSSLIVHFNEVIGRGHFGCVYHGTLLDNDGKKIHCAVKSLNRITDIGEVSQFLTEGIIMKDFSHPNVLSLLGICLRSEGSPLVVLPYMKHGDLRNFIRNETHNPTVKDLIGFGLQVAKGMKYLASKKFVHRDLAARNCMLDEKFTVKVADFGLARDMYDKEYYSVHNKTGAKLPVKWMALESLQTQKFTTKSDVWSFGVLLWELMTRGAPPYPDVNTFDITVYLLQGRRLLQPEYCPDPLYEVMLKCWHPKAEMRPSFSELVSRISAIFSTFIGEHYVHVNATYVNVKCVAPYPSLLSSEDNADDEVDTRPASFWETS
Sequence of baculovirus-expressed ALK (Q9UM73 19-1620): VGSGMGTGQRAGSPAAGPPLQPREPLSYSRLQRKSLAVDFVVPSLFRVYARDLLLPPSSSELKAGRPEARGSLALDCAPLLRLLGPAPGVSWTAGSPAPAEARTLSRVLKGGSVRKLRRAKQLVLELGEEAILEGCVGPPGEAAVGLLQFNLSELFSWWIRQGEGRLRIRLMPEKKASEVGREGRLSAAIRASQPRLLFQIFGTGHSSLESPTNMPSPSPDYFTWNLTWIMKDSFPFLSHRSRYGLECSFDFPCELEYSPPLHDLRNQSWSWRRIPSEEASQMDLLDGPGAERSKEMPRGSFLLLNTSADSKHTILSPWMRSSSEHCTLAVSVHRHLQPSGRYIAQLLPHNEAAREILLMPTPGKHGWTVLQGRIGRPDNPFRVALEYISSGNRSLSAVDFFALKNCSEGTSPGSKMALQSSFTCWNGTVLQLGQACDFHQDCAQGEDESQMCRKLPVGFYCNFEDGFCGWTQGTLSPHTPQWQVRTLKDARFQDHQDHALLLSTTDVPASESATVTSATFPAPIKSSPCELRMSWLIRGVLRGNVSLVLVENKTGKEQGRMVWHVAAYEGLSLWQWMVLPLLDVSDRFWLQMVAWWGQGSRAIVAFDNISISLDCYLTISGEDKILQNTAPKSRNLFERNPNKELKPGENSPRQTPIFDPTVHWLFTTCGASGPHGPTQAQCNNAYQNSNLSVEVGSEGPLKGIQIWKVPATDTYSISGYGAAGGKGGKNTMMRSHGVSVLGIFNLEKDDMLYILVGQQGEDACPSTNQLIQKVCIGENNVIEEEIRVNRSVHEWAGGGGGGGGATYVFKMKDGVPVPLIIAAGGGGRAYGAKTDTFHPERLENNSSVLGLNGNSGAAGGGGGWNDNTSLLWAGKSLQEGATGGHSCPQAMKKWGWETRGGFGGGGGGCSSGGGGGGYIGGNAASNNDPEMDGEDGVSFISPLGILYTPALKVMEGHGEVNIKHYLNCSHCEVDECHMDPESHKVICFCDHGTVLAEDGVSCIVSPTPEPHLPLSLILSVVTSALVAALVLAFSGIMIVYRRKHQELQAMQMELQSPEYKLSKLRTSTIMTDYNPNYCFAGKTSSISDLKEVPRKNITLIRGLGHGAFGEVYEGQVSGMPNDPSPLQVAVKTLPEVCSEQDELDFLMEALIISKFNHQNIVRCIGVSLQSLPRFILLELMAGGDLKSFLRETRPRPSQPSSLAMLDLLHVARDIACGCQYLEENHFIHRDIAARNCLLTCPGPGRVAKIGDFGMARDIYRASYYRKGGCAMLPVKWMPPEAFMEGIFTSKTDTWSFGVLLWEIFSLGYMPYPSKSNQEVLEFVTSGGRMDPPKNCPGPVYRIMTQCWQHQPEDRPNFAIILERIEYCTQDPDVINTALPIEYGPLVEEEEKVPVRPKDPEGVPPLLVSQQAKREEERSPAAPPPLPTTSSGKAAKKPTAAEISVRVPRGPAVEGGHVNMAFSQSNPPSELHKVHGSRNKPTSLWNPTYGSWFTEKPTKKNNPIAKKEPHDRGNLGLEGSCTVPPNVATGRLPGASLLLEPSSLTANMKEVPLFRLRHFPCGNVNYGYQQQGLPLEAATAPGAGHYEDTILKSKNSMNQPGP

`O=C(c1cc(F)ccc1F)N1CCNc2ncc(I)cc21` [Example 87, (2,5-Difluorophenyl)-(7-iodo-3,4-dihydro-2H-pyrido[2,3-b]pyrazin-1-yl)methanone]: the IC50 in test [1] and in test [2] was above 100 µM in each case.
As for `O=C(c1cc(F)ccc1F)N1CCNc2ncc(-c3ccc(C(=O)N4CCC[C@H]4CN4CCCC4)cc3)cc21` [Example 89, (2,5-Difluorophenyl)-{7-[4-((S)-2-[(pyrrolidin-1-yl)methyl]pyrrolidine-1-carbonyl)phenyl]-3,4-dihydro-2H-pyrido[2,3-b]pyrazin-1-yl}-methanone], the IC50 in test [1] and in test [2] was 10 to 100 µM throughout.
`COC(=O)C(C)(C)Nc1ncc(I)cc1[N+](=O)[O-]` [Example 90, 2-(5-Iodo-3-nitro-pyridin-2-ylamino)-2-methyl-propionic acid methyl ester]: the IC50 in test [1] and in test [2] was above 100 µM throughout.
Turning to `Fc1ccc(F)c(CN2CCNc3ncc(-c4ccnc(N5CCOCC5)c4Cl)cc32)c1Cl` [Example 101, 1-(2-Chloro-3,6-difluorobenzyl)-7-(3-chloro-2-morpholin-4-yl-pyridin-4-yl)-1,2,3,4-tetrahydropyrido[2,3-b]pyrazine], the IC50 – broadly, the midpoint of a concentration-inhibition curve – in test [1] lay in the range of 1 to 10 µM; in test [2] it was 0.1 to 1 µM.
Consider `O=C(Cc1ccccc1)N1CCNc2ncc(I)cc21` [Example 110, 1-(7-Iodo-3,4-dihydro-2H-pyrido[2,3-b]pyrazin-1-yl)-2-phenylethanone], for which the IC50 in test [1] is 10 to 100 µM; in test [2] it was above 100 µM.
As for `O=C(c1ccc(-c2cnc3c(c2)N(C(=O)Cc2ccccc2)CCN3)cc1)N1CCC(N2CCCC2)CC1` [Example 111, 2-Phenyl-1-{7-[4-(4-(pyrrolidin-1-yl)piperidine-1-carbonyl)phenyl]-3,4-dihydro-2H-pyrido[2,3-b]pyrazin-1-yl}-ethanone], the IC50 in test [1] was 10 to 100 µM; in test [2], above 100 µM.
For `O=C(c1ccc(-c2cnc3c(c2)N(C(=O)Cc2cc(F)ccc2F)CCN3)cc1)N1CCC(N2CCCC2)CC1` [Example 114, 2-(2,5-Difluorophenyl)-1-{7-[4-(4-(pyrrolidin-1-yl)piperidine-1-carbonyl)phenyl]-3,4-dihydro-2H-pyrido[2,3-b]pyrazin-1-yl}ethanone], in that order: 10 to 100 µM and 1 to 10 µM.
For `O=S(=O)(c1ccccc1)N1CCNc2ncc(I)cc21` [Example 123, 1-Benzenesulfonyl-7-iodo-1,2,3,4-tetrahydropyrido[2,3-b]pyrazine], the IC50 in test [1] and in test [2] was 10 to 100 µM each time.
`CN1CCN(c2ccc(-c3cnc4c(c3)N(S(=O)(=O)c3ccccc3)CCN4)cn2)CC1` [Example 125, 1-Benzenesulfonyl-7-[6-(4-methylpiperazin-1-yl)pyridin-3-yl]-1,2,3,4-tetrahydropyrido[2,3-b]pyrazine]: the IC50 in test [1] fell in the range of 10 to 100 µM; in test [2], 0.1 to 1 µM.
Regarding `COc1ncc(-c2cnc3c(c2)N(Cc2cc(Cl)ccc2Cl)CCN3)cn1` [Example 129, 1-(2,5-Dichlorobenzyl)-7-(2-methoxypyrimidin-5-yl)-1,2,3,4-tetrahydropyrido[2,3-b]pyrazine], the IC50 in test [1] lay in the range of 10 to 100 µM; in test [2] it was 0.1 to 1 µM.
For `Clc1cccc(Cl)c1CN1CCNc2ncc(-c3cccnc3)cc21` [Example 138, 1-(2,6-Dichlorobenzyl)-7-pyridin-3-yl-1,2,3,4-tetrahydropyrido[2,3-b]pyrazine, trifluoroacetic acid salt], in that order: 10 to 100 µM and 1 to 10 µM.
As to `CN(C)CCCCCCNC(=O)c1ccc(-c2cnc3c(c2)N(Cc2c(Cl)cccc2Cl)C(=O)CN3)cc1` [Example 143, 4-[1-(2,6-Dichlorobenzyl)-2-oxo-1,2,3,4-tetrahydropyrido[2,3-b]pyrazin-7-yl]-N-(6-dimethylaminohexyl)benzamide, trifluoroacetic acid salt], the half-inhibitory concentration (IC50) in test [1] is 1 to 10 µM; in test [2], 0.1 to 1 µM.
In the case of `CC(c1cc(F)c(F)cc1F)N1C(=O)CNc2ncc(I)cc21` (stereo not shown) [Example 145, 7-Iodo-1-[1-(2,4,5-trifluorophenyl)ethyl]-3,4-dihydro-1H-pyrido[2,3-b]pyrazin-2-one], the IC50 in test [1] and in test [2] was above 100 µM in each case.
Take `CC(c1cc(F)c(F)cc1F)N1C(=O)CNc2ncc(-c3ccc(C(=O)N4CCN(C)CC4)cc3)cc21` (stereo not shown) [Example 146, 7-[4-(4-Methylpiperazine-1-carbonyl)phenyl]-1-[1-(2,4,5-trifluorophenyl)ethyl]-3,4-dihydro-1H-pyrido[2,3-b]pyrazin-2-one, trifluoroacetic acid salt]: the IC50 in test [1] is 10 to 100 µM; in test [2], above 100 µM.
For `CC(c1cc(F)c(F)cc1F)N1CCNc2ncc(I)cc21` (stereo not shown) [Example 147, 7-Iodo-1-[1-(2,4,5-trifluorophenyl)ethyl]-1,2,3,4-tetrahydropyrido[2,3-b]pyrazine], the IC50 in test [1] was above 100 µM; in test [2] it was 10 to 100 µM.
For `CC(c1cc(F)c(F)cc1F)N1CCNc2ncc(-c3ccc(C(=O)N4CCC[C@H]4CN4CCCC4)cc3)cc21` (stereo partly drawn) [Example 148, S-{2-[(pyrrolidin-1-yl)methyl]pyrrolidin-1-yl}-(4-{1-[1-(2,4,5-trifluorophenyl)ethyl]-1,2,3,4-tetrahydropyrido[2,3-b]pyrazin-7-yl}phenyl)methanone, trifluoroacetic acid salt], in that order: 10 to 100 µM and 0.1 to 1 µM.
`CC(c1cc(F)c(F)cc1F)N1CCNc2ncc(-c3ccc(C(=O)N4CCN(C)CC4)cc3)cc21` (stereo not shown) [Example 149, (4-Methylpiperazin-1-yl)-(4-{1-[1-(2,4,5-trifluorophenyl)ethyl]-1,2,3,4-tetrahydropyrido[2,3-b]pyrazin-7-yl}phenyl)methanone]: the IC50 in test [1] and in test [2] was above 100 µM throughout.
Turning to `CC(c1cc(F)ccc1F)N1C(=O)CNc2ncc(I)cc21` (stereo not shown) [Example 150, 1-[1-(2,5-Difluorophenyl)ethyl]-7-iodo-3,4-dihydro-1H-pyrido[2,3-b]pyrazin-2-one], the IC50 in test [1] and in test [2] was above 100 µM each time.
As to `CC(c1cc(F)ccc1F)N1C(=O)CNc2ncc(-c3ccc(C(=O)N4CCC[C@H]4CN4CCCC4)cc3)cc21` (stereo partly shown) [Example 151], the IC50 was 10 to 100 µM in test [1] and 0.1 to 1 µM in test [2].
As to `CC(c1cc(F)ccc1F)N1C(=O)CNc2ncc(-c3ccc(C(=O)N4CCN(C)CC4)cc3)cc21` (stereo not shown) [Example 152, 1-[1-(2,5-Difluorophenyl)ethyl]-7-[4-(4-methylpiperazine-1-carbonyl)phenyl]-3,4-dihydro-1H-pyrido[2,3-b]pyrazin-2-one, trifluoroacetic acid salt], the IC50 in test [1] was in the range of 10 to 100 µM; in test [2], 1 to 10 µM.
Take `CC(c1cc(F)ccc1F)N1CCNc2ncc(I)cc21` (stereo not shown) [Example 153, 1-[1-(2,5-Difluorophenyl)ethyl]-7-iodo-1,2,3,4-tetrahydropyrido[2,3-b]pyrazine]: the IC50 in test [1] and in test [2] was above 100 µM throughout.
For the molecule `CC(C)(C)OC(=O)NCC#Cc1cnc2c(c1)N(Cc1c(Cl)cccc1Cl)CCN2` [Example 170, {3-[1-(2,6-Dichlorobenzyl)-1,2,3,4-tetrahydropyrido[2,3-b]pyrazin-7-yl]prop-2-ynyl}carbamic acid tert-butyl ester], the results for the IC50 in test [1] and in test [2] were above 100 µM and 1 to 10 µM, respectively.
On to `NCC#Cc1cnc2c(c1)N(Cc1c(Cl)cccc1Cl)CCN2` [Example 171, 3-[1-(2,6-Dichlorobenzyl)-1,2,3,4-tetrahydropyrido[2,3-b]pyrazin-7-yl]prop-2-ynylamine, trifluoroacetic acid salt], for which the IC50 was above 100 µM in test [1] and 10 to 100 µM in test [2].
For `CC(c1c(F)ccc(F)c1Cl)N1C(=O)CNc2ncc(I)cc21` (stereo not shown) [Example 175, 1-[1-(2-Chloro-3,6-difluorophenyl)ethyl]-7-iodo-3,4-dihydro-1H-pyrido[2,3-b]pyrazin-2-one], the IC50 in test [1] and in test [2] was above 100 µM in each case.
As to `Fc1cccc(CN2CCNc3ncc(I)cc32)c1C(F)(F)F` [Example 179, 1-[3-Fluoro-2-(trifluoromethyl)benzyl]-7-iodo-1,2,3,4-tetrahydropyrido[2,3-b]pyrazine], the IC50 in test [1] and in test [2] was above 100 µM each time.
Consider `CN1CCN(c2ccc(-c3cnc4c(c3)N(Cc3cccc(F)c3C(F)(F)F)CCN4)cn2)CC1` [Example 181, 1-[3-Fluoro-2-(trifluoromethyl)benzyl]-7-[6-(4-methylpiperazin-1-yl)pyridin-3-yl]-1,2,3,4-tetrahydropyrido[2,3-b]pyrazine], for which the IC50 in test [1] lay within 1 to 10 µM; in test [2], 0.1 to 1 µM.
